Data on 26 compounds can be found in patent US10059713B2 (Takeda Pharmaceutical Company Limited, priority 2014, dated 2018).

What is called EC50 is the concentration giving half of the maximal effect. A lower EC50 goes with greater potency.

Sequence of human GPR43 (O15552 whole entry): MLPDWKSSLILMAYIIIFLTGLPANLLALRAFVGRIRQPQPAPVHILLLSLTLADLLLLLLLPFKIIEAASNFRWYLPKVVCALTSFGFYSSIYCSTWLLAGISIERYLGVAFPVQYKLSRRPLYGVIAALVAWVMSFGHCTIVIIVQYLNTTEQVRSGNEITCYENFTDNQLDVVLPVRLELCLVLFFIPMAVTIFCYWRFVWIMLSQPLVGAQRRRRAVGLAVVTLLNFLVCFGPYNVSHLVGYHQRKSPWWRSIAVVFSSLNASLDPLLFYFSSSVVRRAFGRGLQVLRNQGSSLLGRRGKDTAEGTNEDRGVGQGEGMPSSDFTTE

The experiment has as its target human GPR43 (Homo sapiens (Human), UniProt O15552). Briefly: Ca-Flux functional assay: determination of agonist/positive allosteric modulator (PAM) activity. The class given is cell-based. To be noted: CHO-K1 Gα16 cells stably expressing human GPR43; compound added with EC20 sodium acetate; intracellular Ca2+ by FLIPR; does not distinguish agonist from PAM. The procedure, abridged:
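Agonist or PAM activity read as intracellular Ca2+ rise by FLIPR after adding compound plus EC20 acetate, acetate EC20 set from a prior curve. Cells: CHO-K1 Gα16 with stable human GPR43. EC50 from ten-point half-log curves starting 10 μM.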
For the compound `CC(C)C1CN(c2ncnc3c(S(=O)(=O)c4ccccc4)c(N)[nH]c23)CCO1` (centres unmarked) [Example 184, 7-(benzenesulfonyl)-4-[2-(propan-2-yl)morpholin-4-yl]-5H-pyrrolo[3,2-d]pyrimidin-6-amine], the EC50 was 0.083 µM. As for `CCOC1CCCN(c2ncnc3c(S(=O)(=O)c4ccccc4)c(N)[nH]c23)C1` (centres unmarked) [Example 113, 7-(benzenesulfonyl)-4-(3-ethoxypiperidin-1-yl)-5H-pyrrolo[3,2-d]pyrimidin-6-amine], the figure is 0.858 µM. In turn, `COc1ccc(S(=O)(=O)c2c(N)[nH]c3c(N4CCO[C@@H](C)C4)nc(C)nc23)c(F)c1` [Example 233, 7-(2-fluoro-4-methoxybenzenesulfonyl)-2-methyl-4-[(2S)-2-methylmorpholin-4-yl]-5H-pyrrolo[3,2-d]pyrimidin-6-amine] had an EC50 of 0.003 µM.

`CC1CN(c2ncnc3c(S(=O)(=O)c4ccccc4)c(N)[nH]c23)CC(C)S1` (centres unmarked) [Example 197, 7-(benzenesulfonyl)-4-(2,6-dimethylthiomorpholin-4-yl)-5H-pyrrolo[3,2-d]pyrimidin-6-amine] showed an EC50 of 0.004 µM.

`Cc1nc(N2CCOC3(CC3)C2)c2[nH]c(N)c(S(=O)(=O)c3cccc(F)c3)c2n1` [Example 192, 7-(3-fluorobenzenesulfonyl)-2-methyl-4-{4-oxa-7-azaspiro[2.5]octan-7-yl}-5H-pyrrolo[3,2-d]pyrimidin-6-amine] had an EC50 of 0.031 µM. The compound `Cc1nc(N2C[C@@H](C)O[C@H](C)C2)c2[nH]c(N)c(S(=O)(=O)c3ccccc3F)c2n1` [Example 203, 4-[(2R,6R)-2,6-dimethylmorpholin-4-yl]-7-(2-fluorobenzenesulfonyl)-2-methyl-5H-pyrrolo[3,2-d]pyrimidin-6-amine] had a concentration giving a half-maximal response (EC50) of 0.011 µM. The compound `O=S(=O)(c1ccccc1)c1c(NC2CCC(F)(F)CC2)[nH]c2ncccc12` [Example 1, 3-(benzenesulfonyl)-N-(4,4-difluorocyclohexyl)-1H-pyrrolo[2,3-b]pyridin-2-amine] returned an EC50 of 5.5 µM. In the case of `Cc1nc(N2CCOC(C)(C)C2)c2[nH]c(N)c(S(=O)(=O)c3cccc(F)c3)c2n1` [Example 191, 4-(2,2-dimethylmorpholin-4-yl)-7-(3-fluorobenzenesulfonyl)-2-methyl-5H-pyrrolo[3,2-d]pyrimidin-6-amine], it took 0.043 µM to reach a half-maximal effect (EC50). For `Nc1[nH]c2c(O[C@H]3CCOC3)ncnc2c1S(=O)(=O)c1ccccc1` [Example 158, 7-(benzenesulfonyl)-4-[(3S)-oxolan-3-yloxy]-5H-pyrrolo[3,2-d]pyrimidin-6-amine], the EC50 came out at 3.07 µM. Take `Cc1nc(N2CCOC(C)(C)C2)c2[nH]c(N)c(S(=O)(=O)c3ccccc3F)c2n1` [Example 185, 4-(2,2-dimethylmorpholin-4-yl)-7-(2-fluorobenzenesulfonyl)-2-methyl-5H-pyrrolo[3,2-d]pyrimidin-6-amine]: the EC50 is 0.006 µM. `Nc1[nH]c2c(N3CCOCC3)ncnc2c1S(=O)(=O)c1ccccc1` [Example 6, 7-(benzenesulfonyl)-4-(morpholin-4-yl)-5H-pyrrolo[3,2-d]pyrimidin-6-amine] registered an EC50 of 0.273 µM. In the case of `C=C(C)c1nc(C)nc2c(S(=O)(=O)c3ccccc3)c(N)[nH]c12` [Example 149, 7-(benzenesulfonyl)-2-methyl-4-(prop-1-en-2-yl)-5H-pyrrolo[3,2-d]pyrimidin-6-amine], the EC50 worked out at 0.252 µM. In the case of `CC1CN(c2ncnc3c(S(=O)(=O)CCc4ccccc4)c(N)[nH]c23)CCO1` (centres unmarked) [Example 153, 4-(2-methylmorpholin-4-yl)-7-(2-phenylethanesulfonyl)-5H-pyrrolo[3,2-d]pyrimidin-6-amine] it was 0.814 µM; in that of `CC1(C)CN(c2ccnc3c(S(=O)(=O)c4ccccc4)c(N)[nH]c23)CCO1` [Example 277, 3-(benzenesulfonyl)-7-(2,2-dimethylmorpholin-4-yl)-H-pyrrolo[3,2-b]pyridin-2-amine], 0.04 µM. The compound `C[C@@H]1CN(c2ncnc3c(S(=O)(=O)c4ccccc4)c(N)[nH]c23)CCO1` [Example 137, 7-(benzenesulfonyl)-4-[(2R)-2-methylmorpholin-4-yl]-5H-pyrrolo[3,2-d]pyrimidin-6-amine] yielded an EC50 of 0.052 µM. In the case of `Cc1nc(N2CCO[C@@H](C)C2)c2[nH]c(N)c(S(=O)(=O)c3ccc(Br)cc3F)c2n1` [Example 239, 7-(4-bromo-2-fluorobenzenesulfonyl)-2-methyl-4-[(2S)-2-methylmorpholin-4-yl]-5H-pyrrolo[3,2-d]pyrimidin-6-amine] it was 0.002 µM. The compound `CSc1nc(N2CCOC(C)C2)c2[nH]c(N)c(S(=O)(=O)c3cccc(F)c3)c2n1` (centres unmarked) [Example 264, 7-(3-fluorobenzenesulfonyl)-4-(2-methylmorpholin-4-yl)-2-(methylsulfanyl)-5H-pyrrolo[3,2-d]pyrimidin-6-amine] had an EC50 of 0.045 µM. Consider `C[C@H]1CN(c2ncnc3c(S(=O)(=O)c4ccccc4)c(N)[nH]c23)CCO1` [Example 86, 7-(benzenesulfonyl)-4-[(2S)-2-methylmorpholin-4-yl]-5H-pyrrolo[3,2-d]pyrimidin-6-amine], for which a half-maximal effect (EC50) was put at 0.019 µM. Consider `Cc1nc(N2CCOC(C)C2)c2[nH]c(N)c(S(=O)(=O)c3ccccc3)c2n1` (centres unmarked) [Example 111, 7-(benzenesulfonyl)-2-methyl-4-(2-methylmorpholin-4-yl)-5H-pyrrolo[3,2-d]pyrimidin-6-amine], for which a half-maximal effect (EC50) was put at 0.019 µM.

For `Cc1nc(N2CCOC(CF)C2)c2[nH]c(N)c(S(=O)(=O)c3ccccc3F)c2n1` (centres unmarked) [Example 266, 7-(2-fluorobenzenesulfonyl)-4-[2-(fluoromethyl)morpholin-4-yl]-2-methyl-5H-pyrrolo[3,2-d]pyrimidin-6-amine], the midpoint of the response, the EC50, lay at 0.003 µM. As for `Nc1[nH]c2c(N3CCC(F)(F)C3)ncnc2c1S(=O)(=O)c1ccccc1` [Example 29, 7-(benzenesulfonyl)-4-(3,3-difluoropyrrolidin-1-yl)-5H-pyrrolo[3,2-d]pyrimidin-6-amine], the figure is 0.399 µM; as for `Cc1nc(OC(C)C)c2[nH]c(N)c(S(=O)(=O)c3ccccc3)c2n1` [Example 242, 7-(benzenesulfonyl)-2-methyl-4-(propan-2-yloxy)-5H-pyrrolo[3,2-d]pyrimidin-6-amine], 0.051 µM.

Compound `Nc1[nH]c2c(N3CCCC(F)(F)C3)ncnc2c1S(=O)(=O)c1ccccc1` [Example 34, 7-(benzenesulfonyl)-4-(3,3-difluoropiperidin-1-yl)-5H-pyrrolo[3,2-d]pyrimidin-6-amine] came in with an EC50 of 0.089 µM. In the case of `Cc1nc(N2CCOC(C(F)(F)F)C2)c2[nH]c(N)c(S(=O)(=O)c3ccccc3)c2n1` (centres unmarked) [Example 225, 7-(benzenesulfonyl)-2-methyl-4-[2-(trifluoromethyl)morpholin-4-yl]-5H-pyrrolo[3,2-d]pyrimidin-6-amine] it was 0.014 µM; in that of `Nc1[nH]c2c(OCC3CCCOC3)ncnc2c1S(=O)(=O)c1ccccc1` (centres unmarked) [Example 157, 7-(benzenesulfonyl)-4-(oxan-3-ylmethoxy)-5H-pyrrolo[3,2-d]pyrimidin-6-amine], 1.58 µM. In the case of `Cc1ccccc1S(=O)(=O)c1c(N)[nH]c2c(N3CCOC(C)C3)ncnc12` (centres unmarked) [Example 120, 7-(2-methylbenzenesulfonyl)-4-(2-methylmorpholin-4-yl)-5H-pyrrolo[3,2-d]pyrimidin-6-amine] it was 0.131 µM.
